Data: publication PMC3726394, “Selecting β-glucosidases to support cellulases in cellulose saccharification” (Biotechnology for Biofuels, 2013)

Experiments:
Type in all cases: biochemical, Acremonium thermophilum
AtBG3 [1] = system: T1, AtBG3; assay: pNP release, absorbance […] nm; fit with transglycosylation; conditions: 25 °C, pH 5.0, 50 mM sodium acetate; hydrolysis constant, substrate inhibition by transglycosylation; read-out: KM(h)
T1 construct: secreted enzyme, heterologously expressed in Trichoderma reesei lacking four major cellulases; gel filtration; 101 kDa

AtBG3 [2] = target: T1, AtBG3; assay: inhibition of MUG hydrolysis, fluorescence; conditions: 25 °C, pH 5.0, 2.5 μM MUG; IC50 at [S] << KM taken as Ki; competitive inhibition assumed; read-out: AtBG3^b
Text: inhibition of MUG hydrolysis, fluorescence on AtBG3

AtBG3 [3] = system: T1, AtBG3; assay: glucose release, hexokinase/G6PDH assay; fit with transglycosylation; conditions: 25 °C, pH 5.0, 50 mM sodium acetate; hydrolysis constant, substrate inhibition by transglycosylation; read-out: KM(h)(mM)^a / AtBG3

O=[N+]([O-])c1ccc(O[C@@H]2O[C@H](CO)[C@@H](O)[C@H](O)[C@H]2O)cc1 [para-nitrophenyl-β-glucoside]
Km (AtBG3 [1]): 95 ± 3 µM

OC[C@H]1OC(O)[C@H](O)[C@@H](O)[C@@H]1O (stereo partly drawn) [glucose]
Ki (AtBG3 [2]): 220 µM

OC[C@H]1O[C@@H](O[C@H]2[C@H](O)[C@@H](O)C(O)O[C@@H]2CO)[C@H](O)[C@@H](O)[C@@H]1O (stereo partly drawn) [cellobiose]
Km (AtBG3 [3]): 0.29 ± 0.07 mM
